Source: patent publication US7947726B2, “Non-steroidal ligands for the glucocorticoid receptor, and compositions thereof” (The Regents of the University of California, priority 2002, dated 2011)

Columns and labels:
[1] = biological target: T1, AR (Homo sapiens, UniProt P10275); assay: AR activation (max fold activation); assay type: cell-based; settings: Table 4
T1 sequence (P10275 1-920): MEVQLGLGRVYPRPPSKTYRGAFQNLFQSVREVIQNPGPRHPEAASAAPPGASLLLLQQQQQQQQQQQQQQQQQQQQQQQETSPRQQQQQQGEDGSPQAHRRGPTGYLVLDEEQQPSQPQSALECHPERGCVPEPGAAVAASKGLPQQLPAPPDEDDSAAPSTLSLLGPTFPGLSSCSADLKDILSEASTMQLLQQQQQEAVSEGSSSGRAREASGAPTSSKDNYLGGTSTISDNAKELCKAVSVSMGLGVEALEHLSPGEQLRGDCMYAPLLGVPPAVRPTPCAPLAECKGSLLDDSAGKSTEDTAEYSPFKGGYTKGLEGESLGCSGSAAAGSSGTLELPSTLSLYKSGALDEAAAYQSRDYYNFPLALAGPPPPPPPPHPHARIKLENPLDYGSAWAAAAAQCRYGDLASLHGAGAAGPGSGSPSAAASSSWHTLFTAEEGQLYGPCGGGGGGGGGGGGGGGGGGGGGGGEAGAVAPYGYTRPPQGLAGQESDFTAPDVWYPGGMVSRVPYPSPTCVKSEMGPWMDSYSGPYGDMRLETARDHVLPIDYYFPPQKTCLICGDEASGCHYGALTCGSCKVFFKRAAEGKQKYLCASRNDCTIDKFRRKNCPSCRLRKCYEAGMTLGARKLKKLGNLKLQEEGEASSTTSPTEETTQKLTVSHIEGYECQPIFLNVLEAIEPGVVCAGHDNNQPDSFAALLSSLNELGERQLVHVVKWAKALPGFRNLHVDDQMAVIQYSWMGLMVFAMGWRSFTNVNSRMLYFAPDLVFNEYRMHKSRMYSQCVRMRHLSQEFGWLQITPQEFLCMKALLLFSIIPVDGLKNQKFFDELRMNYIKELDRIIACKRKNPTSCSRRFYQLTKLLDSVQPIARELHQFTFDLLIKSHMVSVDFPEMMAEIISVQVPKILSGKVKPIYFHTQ

[2] = tested on: NF-κB; assay: NF-κB repression luciferase assay in A549 cells; assay type: cell-based, human; settings: Table 5, TNF-α-stimulated A549 cells
Description: Plasmids for GR (human, pSG5 backbone), AP1-Luc (synthetic AP1 response element upstream of a firefly luciferase gene), TAT3-Luc (three copies of the tyrosine aminotransferase glucocorticoid response element upstream of a firefly luciferase gene), β-galactosidase (used as a transfection control), as well as two stable transfected cells lines: an A549 (human, lung carcinoma) cell line stably transfected with a κB response element upstream of a firefly luciferase gene, (R. M. Nissen et al., Genes Dev., 14(18):2314-29, (2000)) and a U2OS (human, osteosarcoma) stably transfected with rat GR (I. Rogatsky, et al., Mol. Cell. Biol., 1997, 17, 3181-3193) were a gift of Professor Keith Yamamoto (Department of Biochemistry, University of California, San Francisco).
For NF-κB repression assays, A549 cells stably transfected with a luciferase reporter were grown under the same conditions as CV-1 cells. 50,000 cells/well were plated into 96 well plates and incubated for 12 h at 37° C. Either TNF-α alone or mixed with various hormone dilutions in media were then added to the cells, which were then incubated for 8 hours. Procedures for lysis and luciferase assay were performed as previously described. Protein content was used as a control in this case and the recommended procedures using the BCA Protein Assay Kit (Roche) were followed.

Row | SMILES | AR max fold activation [1] | EC50 ([2]; Homo sapiens, read-out: Repression NF-KB pot (EC50)) [nM] | Repression NF-KB % max repression [2] [%]
1 | Cc1cc(O)cc(C)c1C(O)C1CCCC2=Cc3c(cnn3-c3ccc(F)cc3)CC21C (stereo not drawn) [Compound 227, 4-{[1-(4-Fluoro-phenyl)-4a-methyl-4,4a,5,6,7,8-hexahydro-1H-benzo[f]indazol-5-yl]-hydroxy-methyl}-3,5-dimethyl-phenol] | 4.6 ± 1.6 | – | –
2 | CC12Cc3cnn(-c4ccc(F)cc4)c3C=C1CCCC2C(O)c1cccc2[nH]ccc12 (stereo not drawn) [Compound 237, [1-(4-Fluoro-phenyl)-4a-methyl-4,4a,5,6,7,8-hexahydro-1H-benzo[f]indazol-5-yl]-(1H-indol-4-yl)-methanol] | – | 26.4 | 74
